Measured values taken from ChEMBL document CHEMBL1649069, “Discovery of a series of phosphonic acid-containing thiazoles and orally bioavailable diamide prodrugs that lower glucose in diabetic animals through inhibition of fructose-1,6-bisphosphatase” (J Med Chem, 2011).
Each block holds one compound with its values, some of them ahead of it. Calls of active or inactive are those of the source. No cut-off for these calls is given here.

What was measured:
Rattus norvegicus [1] = assay: Antidiabetic activity in Sprague-Dawley rat assessed as decrease in glucose Cmax at 10 mg/kg, iv; type: functional
[2] = target: T1, Fructose-1,6-bisphosphatase 1 (Homo sapiens, UniProt P09467)
T1 sequence (P09467 whole entry): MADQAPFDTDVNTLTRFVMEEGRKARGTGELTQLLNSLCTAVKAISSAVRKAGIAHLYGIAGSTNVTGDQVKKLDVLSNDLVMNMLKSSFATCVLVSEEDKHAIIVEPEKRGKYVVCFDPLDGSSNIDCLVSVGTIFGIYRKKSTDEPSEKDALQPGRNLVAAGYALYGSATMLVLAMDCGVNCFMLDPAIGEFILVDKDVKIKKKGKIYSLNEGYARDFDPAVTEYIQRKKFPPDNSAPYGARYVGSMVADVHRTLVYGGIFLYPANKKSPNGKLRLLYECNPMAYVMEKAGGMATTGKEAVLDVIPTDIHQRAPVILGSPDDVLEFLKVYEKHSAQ
Description: Inhibition of human liver FBP

[3] = Volume of distribution in Sprague-Dawley rat; type: ADME, organism-based; details: in vivo
[4] = Half life in Sprague-Dawley rat; type: ADME, organism-based; details: in vivo
[5] = Plasma protein binding in human; type: ADME, cell-free; details: read-out: PPB (converted)
[6] = Clearance in Sprague-Dawley rat; type: ADME, organism-based; details: in vivo
[7] = (§1) Oral bioavailability in Sprague-Dawley rat; type: ADME, organism-based; details: Sprague-Dawley, in vivo
[8] = Plasma protein binding in Sprague-Dawley rat; type: ADME, cell-free; details: read-out: PPB (converted)
Rattus norvegicus [9] = assay: Antidiabetic activity in Sprague-Dawley rat assessed as decrease in glucose Cmax at 30 mg/kg
Rattus norvegicus [10] = assay: Antihyperglycemic activity in Zucker fa/fa rat assessed as reduction in glucose level at 0.4 % w/w administered as food mixture; type: functional, organism-based
Rattus norvegicus [11] = assay: Antidiabetic activity in Sprague-Dawley rat assessed as decrease in glucose Cmax at 10 mg/kg, po; type: functional
Rattus norvegicus [12] = assay: as §1; type: ADME, organism-based; details: in vivo
[13] = Oral bioavailability in dog; type: ADME, organism-based, Canis lupus familiaris; details: in vivo
[14] = Oral bioavailability in rat; type: ADME, organism-based; details: in vivo

IC50 [2]: 2000 nM
SMILES: CC(C)Cc1sc(C#N)nc1-c1ccc(P(=O)(O)O)o1

IC50 [2]: 100 nM
SMILES: Nc1nc(-c2ccc(P(=O)(O)O)o2)c(I)s1
inhibition in vivo at 10 mg/kg (Rattus norvegicus [1]): -2%

Vd [3]: 0.25 L/kg
half-life [4]: 45 min
fraction unbound [5]: 0.001
clearance [6]: 4.33 mL/min/kg
bioavailability [7]: 2%
fraction unbound [8]: 0.01
SMILES: CCc1cc(F)c(N)c2nc(-c3ccc(P(=O)(O)O)o3)n(CC(C)C)c12

IC50 [2]: 33 nM
SMILES: CCSc1sc(N)nc1-c1ccc(P(=O)(O)O)o1

IC50 [2]: 5000 nM
SMILES: CC(C)Cc1sc(-c2cccnc2)nc1-c1ccc(P(=O)(O)O)o1

Vd [3]: 0.18 L/kg
half-life [4]: 39 min
fraction unbound [5]: 0.07
clearance [6]: 4 mL/min/kg
F (Rattus norvegicus [12]): 4%
fraction unbound [8]: 0.1
SMILES: CC(C)Cc1sc(N)nc1-c1ccc(P(=O)(O)O)o1 [MB-05032]
inhibition in vivo at 10 mg/kg (Rattus norvegicus [1]): 65%

IC50 [2]: 300 nM
SMILES: Nc1nc(-c2ccc(P(=O)(O)O)o2)c(Sc2ccccc2)s1

IC50 [2]: 120 nM
SMILES: Cc1sc(N)nc1-c1ccc(P(=O)(O)O)o1

IC50 [2]: 32 nM
SMILES: CC(=O)c1ccc(-c2sc(N)nc2-c2ccc(P(=O)(O)O)o2)cc1
inhibition in vivo at 10 mg/kg (Rattus norvegicus [1]): 43%

IC50 [2]: 13 nM
SMILES: Nc1nc(-c2ccc(P(=O)(O)O)o2)c(-c2ccc(Cl)cc2)s1
inhibition in vivo at 10 mg/kg (Rattus norvegicus [1]): 40%

IC50 [2]: 1200 nM
SMILES: C=Cc1nc(-c2ccc(P(=O)(O)O)o2)c(CC(C)C)s1

IC50 [2]: 20 nM
SMILES: Nc1nc(-c2ccc(P(=O)(O)O)o2)c(CC2CC2)s1

IC50 [2]: 24 nM
SMILES: CC(C)(C)Sc1sc(N)nc1-c1ccc(P(=O)(O)O)o1

IC50 [2]: > 10000 nM
SMILES: CCCc1sc(N)nc1-c1ccc(P(=O)(O)O)s1

IC50 [2]: 21 nM
SMILES: CSc1ccc(-c2sc(N)nc2-c2ccc(P(=O)(O)O)o2)cc1
inhibition in vivo at 10 mg/kg (Rattus norvegicus [1]): 72%

IC50 [2]: 16 nM
SMILES: Nc1nc(-c2ccc(P(=O)(O)O)o2)c(N2CCOCC2)s1
inhibition in vivo at 10 mg/kg (Rattus norvegicus [1]): 75%

IC50 [2]: 180 nM
SMILES: CC(C)Cc1sc(Cl)nc1-c1ccc(P(=O)(O)O)o1

IC50 [2]: 800 nM
SMILES: CC(C)Cn1c(-c2ccc(P(=O)(O)O)o2)nc2c(N)ncnc21

IC50 [2]: 220 nM
SMILES: CC(C)Cc1sc(CO)nc1-c1ccc(P(=O)(O)O)o1
inhibition in vivo at 10 mg/kg (Rattus norvegicus [1]): 8%

IC50 [2]: 19 nM
SMILES: Nc1nc(-c2ccc(P(=O)(O)O)o2)c(C2CCC2)s1

IC50 [2]: 150 nM
SMILES: Nc1nc(-c2ccc(P(=O)(O)O)o2)c(Cc2ccccc2)s1

IC50 [2]: 14 nM
SMILES: Nc1nc(-c2ccc(P(=O)(O)O)o2)c(-c2ccccc2)s1
inhibition in vivo at 10 mg/kg (Rattus norvegicus [1]): 76%

IC50 [2]: 400 nM
SMILES: CCc1nc(-c2ccc(P(=O)(O)O)o2)c(CC(C)C)s1

IC50 [2]: 2750 nM
SMILES: CC(C)Cc1sc(C(N)=O)nc1-c1ccc(P(=O)(O)O)o1

IC50 [2]: 21 nM
SMILES: COc1cccc(-c2sc(N)nc2-c2ccc(P(=O)(O)O)o2)c1
inhibition in vivo at 10 mg/kg (Rattus norvegicus [1]): 0%

IC50 [2]: 890 nM
SMILES: CSc1nc(-c2ccc(P(=O)(O)O)o2)c(CC(C)C)s1

IC50 [2]: 14 nM
SMILES: COC(=O)c1ccc(-c2sc(N)nc2-c2ccc(P(=O)(O)O)o2)cc1
inhibition in vivo at 10 mg/kg (Rattus norvegicus [1]): 78%

IC50 [2]: 24 nM
SMILES: CC(C)Sc1sc(N)nc1-c1ccc(P(=O)(O)O)o1
inhibition in vivo at 10 mg/kg (Rattus norvegicus [1]): 48%

IC50 [2]: 41 nM
SMILES: CS(=O)(=O)c1ccc(-c2sc(N)nc2-c2ccc(P(=O)(O)O)o2)cc1
inhibition in vivo at 10 mg/kg (Rattus norvegicus [1]): 78%

IC50 [2]: 22 nM
SMILES: COc1ccc(-c2sc(N)nc2-c2ccc(P(=O)(O)O)o2)cc1
inhibition in vivo at 10 mg/kg (Rattus norvegicus [1]): 63%

Second part, the compound before the results:

SMILES: Cc1nc(-c2ccc(P(=O)(O)O)o2)c(CC(C)C)s1
inhibition in vivo at 10 mg/kg (Rattus norvegicus [1]): 55%

SMILES: Cc1oc(-c2nc(N)sc2-c2ccccc2)nc1P(=O)(O)O
IC50 [2]: 10000 nM

SMILES: CCCc1sc(N)nc1-c1cccc(P(=O)(O)O)c1
IC50 [2]: 250 nM
inhibition in vivo at 10 mg/kg (Rattus norvegicus [1]): 0%

SMILES: CC(C)Cc1sc(N)nc1-c1ccc(P2(=O)OCC[C@H](c3cccc(Cl)c3)O2)o1 (stereo partly drawn)
inhibition in vivo at 30 mg/kg (Rattus norvegicus [9]): 53%

SMILES: CCOC(=O)[C@H](C)NP(=O)(N[C@@H](C)C(=O)OCC)c1ccc(-c2nc(N)sc2CC(C)C)o1
inhibition (Rattus norvegicus [10]): Active
inhibition in vivo at 10 mg/kg (Rattus norvegicus [11]): 59%

SMILES: COc1ccccc1-c1sc(N)nc1-c1ccc(P(=O)(O)O)o1
inhibition in vivo at 10 mg/kg (Rattus norvegicus [1]): 66%

SMILES: CC(C)Cc1sc(Br)nc1-c1ccc(P(=O)(O)O)o1
inhibition in vivo at 10 mg/kg (Rattus norvegicus [1]): 3%

SMILES: CCOC(=O)C(C)(C)NP(=O)(NC(C)(C)C(=O)OCC)c1ccc(-c2nc(N)sc2CC(C)C)o1
inhibition in vivo at 10 mg/kg (Rattus norvegicus [11]): 45%

SMILES: CCOC(=O)[C@H](C)NP(=O)(N[C@@H](C)C(=O)OCC)c1ccc(-c2nc3c(N)c(F)cc(CC)c3n2CC(C)C)o1
bioavailability [13]: > 10%
bioavailability [7]: 5%
bioavailability [14]: > 10%

SMILES: Nc1nc(-c2ccc(P(=O)(O)O)o2)c(-c2ccc3ccccc3c2)s1
IC50 [2]: 12 nM
inhibition in vivo at 10 mg/kg (Rattus norvegicus [1]): 20%

SMILES: Nc1nc(-c2ccc(F)c(P(=O)(O)O)c2)c(-c2ccccc2)s1
inhibition in vivo at 10 mg/kg (Rattus norvegicus [1]): 0%

SMILES: Nc1nc(-c2ccc(P(=O)(O)O)o2)c(Br)s1
inhibition in vivo at 10 mg/kg (Rattus norvegicus [1]): 20%

SMILES: Nc1nc(-c2ccc(P(=O)(O)O)o2)c(Cl)s1
inhibition in vivo at 10 mg/kg (Rattus norvegicus [1]): 17%

SMILES: CCOC(=O)CNP(=O)(Oc1ccccc1)c1ccc(-c2nc(N)sc2CC(C)C)o1 (stereo not drawn)
inhibition in vivo at 10 mg/kg (Rattus norvegicus [11]): 51%

SMILES: Nc1nc(C(=O)NCP(=O)(O)O)c(-c2cccs2)s1
IC50 [2]: 950 nM

SMILES: Nc1nc(-c2ccc(P(=O)(O)O)o2)c(-c2cccs2)s1
inhibition in vivo at 10 mg/kg (Rattus norvegicus [1]): 24%

SMILES: Nc1nc(-c2ccc(P(=O)(O)O)o2)c(C(=O)OCc2ccccc2)s1
inhibition in vivo at 10 mg/kg (Rattus norvegicus [1]): 42%

SMILES: Nc1nc(-c2ccc(P(=O)(O)O)o2)c(-c2ccc(F)cc2)s1
inhibition in vivo at 10 mg/kg (Rattus norvegicus [1]): 60%

SMILES: CCOC(=O)c1sc(N)nc1-c1ccc(P(=O)(O)O)o1
inhibition in vivo at 10 mg/kg (Rattus norvegicus [1]): 76%

SMILES: CC(C)(C)c1ccc(-c2sc(N)nc2-c2ccc(P(=O)(O)O)o2)cc1
inhibition in vivo at 10 mg/kg (Rattus norvegicus [1]): 6%

SMILES: CCCSc1sc(N)nc1-c1ccc(P(=O)(O)O)o1
inhibition in vivo at 10 mg/kg (Rattus norvegicus [1]): 82%

SMILES: Nc1nc(-c2ccc(P(=O)(O)O)o2)c(-c2ccc(-c3ccccc3)cc2)s1
inhibition in vivo at 10 mg/kg (Rattus norvegicus [1]): 36%

SMILES: Nc1nc(-c2cccc(P(=O)(O)O)c2)cs1
IC50 [2]: 1300 nM

SMILES: CCCc1sc(N)nc1C(=O)OCP(=O)(O)O
IC50 [2]: 50 nM
inhibition in vivo at 10 mg/kg (Rattus norvegicus [1]): 63%

SMILES: CCOC(=O)OC(C)OP(=O)(OC(C)OC(=O)OCC)c1ccc(-c2nc(N)sc2CC(C)C)o1 (stereo not drawn)
inhibition in vivo at 10 mg/kg (Rattus norvegicus [11]): 12%

SMILES: CCOC(=O)[C@H](C)NP(=O)(Oc1ccccc1)c1ccc(-c2nc(N)sc2CC(C)C)o1 (stereo partly drawn)
inhibition in vivo at 30 mg/kg (Rattus norvegicus [9]): 46%

SMILES: CCOC(=O)OCOP(=O)(OCOC(=O)OCC)c1ccc(-c2nc(N)sc2CC(C)C)o1
inhibition in vivo at 30 mg/kg (Rattus norvegicus [9]): 40%

SMILES: Nc1nc(-n2ccc(P(=O)(O)O)c2)c(-c2ccccc2)s1
IC50 [2]: > 10000 nM

SMILES: Nc1nc(-c2ccc(P(=O)(O)O)o2)c(-c2ccco2)s1
inhibition in vivo at 10 mg/kg (Rattus norvegicus [1]): 21%
